The values below come from article PMC11091243, “PD-L1 targeted peptide demonstrates potent antitumor and immunomodulatory activity in cancer immunotherapy” (Frontiers in Immunology, 2024).

The data set deals with splenic lymphocyte subsets of CT26-bearing Balb/c mice. The data set can be described thus: Flow cytometry of spleen lymphocytes of CT26-bearing mice after treatment. The class given is in vivo. The conditions noted are these: mouse, in vivo. On the procedure:
The mice’s tumor volumes were measured by calipers after they were randomly allocated to various treatment groups. Every day tumor volumes were measured along axes (a and b) that are orthogonal to one another, and they were estimated by the equation tumor volume = π/6 × a × b^2. After the tumor was established (approximately 7 days), each group was subcutaneously injected with PPL-C (6 or 11 mg/kg), control peptide (11 mg/kg), endotoxin-free PD-L1 antibody (200 μg), or control antibody, following specific treatment procedures outlined in the flow chart. The Kaplan-Meier technique was used to determine survival differences for each group, and the log-rank test using the survival R package version 2.38-3 was applied to get the overall p-value.
To differentiate lymphocytes, spleen monocytes were separated via isodensity centrifugation. For flow cytometry evaluation, cell-surface and intracellular staining was achieved through reagents from BD Biosciences or Biolegend, following previously described protocols. Re-suspending the 1× 10^6 cells in 100 μL of PBS before incubating them with the appropriate antibodies. Data were collected using a BD Biosciences FACSCalibur flow cytometer, Germany, and analyzed using FlowJo 7.6 software, USA. Based on scatter signals and 7-Amino-actinomycin D fluorescence, dead cells, and cell debris were removed from the study.
(In flow cytometry, cells or beads pass a laser one at a time.)

As for `CC(C)[C@H](NC(=O)[C@H](CO)NC(=O)[C@@H](NC(=O)[C@@H](N)CO)C(C)C)C(=O)N[C@@H](CO)C(=O)N[C@@H](Cc1c[nH]cn1)C(=O)N[C@@H](Cc1ccccc1)C(=O)N[C@@H](CCC(N)=O)C(=O)N[C@@H](CCCCN)C(=O)N[C@H](C(=O)N[C@@H](Cc1c[nH]c2ccccc12)C(=O)N[C@H](C(=O)N[C@H](C(=O)NCC(=O)NCC(=O)NCC(=O)N[C@@H](CO)C(=O)N[C@@H](CCCCN)C(N)=O)C(C)C)C(C)C)C(C)C` [PPL-C], the “Percentage of NK cells in spleen (CD49b/Nkp46, upper right quadrant)” value was determined as 7.79%.
